From patent US20110178168A1, “COUMARIN COMPOUNDS FOR THE TREATMENT OF CARDIOVASCULAR DISEASES AND A PROCESS FOR PREPARING THE SAME” (priority 2008, published 2011)

Legend:
platelets [1] = test: ADP-induced platelet aggregation in vitro (platelet rich plasma); format: cell-based
Source text: A. Preparation of Platelet Rich, Plasma for the IN VITRO Studies

[2] = tested on: intracellular nitric oxide level in platelets; test: Enhancement of nitric oxide in platelets; format: cell-based
Source text: Nitric oxide is known to mediate a number of pharmacological actions such as vasorelaxation, lowereing of blood pressure and inhibition of platelet aggregation. […] The specific acyl group attached to the coumarin derivative is attributed to the enhancement of intracellular nitric oxide level leading to the inhibition of ADP induced platelet aggregation.
(§1) Platelet Nitric Oxide Synthase (NOS) is remakably activated by way of acetylation catalyzed by Calreticulin transacetylase (CRTAase) leading to robust enhancement of NO in platelets. Compounds of Formula I enhance NO in platelets. Due to this activity, these compounds enhance the NOS leading to enhancement of platelet NO which contributes to the antiplatelet action. […] They are effective in causing the inhibition of ADP induced as well as collagen induced platelet aggregation both invitro and exvivo.

platelets [3] = test: ADP-induced platelet aggregation ex vivo (platelet rich plasma); format: in vivo
Source text: C. Preparation of Platelet Rich Plasma for the EX VIVO Studies

[4] = molecular target: T1, Calreticulin transacetylase (CRTAase) (Homo sapiens, UniProt P27797); test: TAase (calreticulin transacetylase) activity; format: biochemical
T1 sequence (P27797 18-417): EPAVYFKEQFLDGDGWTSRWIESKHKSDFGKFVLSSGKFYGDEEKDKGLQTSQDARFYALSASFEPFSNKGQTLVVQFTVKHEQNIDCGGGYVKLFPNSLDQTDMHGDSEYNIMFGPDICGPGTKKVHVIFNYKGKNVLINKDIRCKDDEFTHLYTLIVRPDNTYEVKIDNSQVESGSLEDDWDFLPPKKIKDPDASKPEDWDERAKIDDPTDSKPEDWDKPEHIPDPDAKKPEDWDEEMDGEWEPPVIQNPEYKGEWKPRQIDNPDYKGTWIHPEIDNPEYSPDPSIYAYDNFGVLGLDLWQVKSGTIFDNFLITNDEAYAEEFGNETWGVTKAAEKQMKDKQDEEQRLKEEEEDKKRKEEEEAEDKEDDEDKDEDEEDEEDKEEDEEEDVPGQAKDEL
Source text: as §1

Row | TAase activity (Units) [4] | Structure (SMILES) | ADP-induced platelet aggregation (% inhibition) IN VITRO (platelets [1]) | Enhancement of nitric oxide (folds) [2] | ADP-induced platelet aggregation (% inhibition) EX VIVO (platelets [3])
1 | Nil | COC(=O)C(c1ccccc1Cl)N1CCc2sccc2C1 (centres unmarked) | Nil | Nil | 65%
2 | Nil | CC(=O)Oc1ccccc1C(=O)O [ASPIRIN, Aspirin] | Nil | Nil | 55%
